What all share (type): functional
Assay [1] relates to Rattus norvegicus. Description: Amount of sodium ions excreted during 4 hr after oral administration of 5 mg/kg of the test agent (protocol B) on 5 male and female rats.
Assay [2] concerns Rattus norvegicus. The experiment in a line: Amount of sodium ions excreted during 18 hours after single administration of 5 mg/kg of the test agent (protocol A-1) on 6 rats.
The test system of assay [3] is Rattus norvegicus. Description: Amount of sodium ions excreted during 18 hours after single administration of 5 mg/kg of the test agent (protocol A-2) on 6 rats.
Assay [4] in a line: Ratio of amount of Na+ excreted to amount of K+ excreted in urine of rat of protocol A-2 test.
The subject of assay [5] is Rattus norvegicus. Description: Amount of potassium ions excreted during 18 hours after single administration of 5 mg/kg of the test agent (protocol A-2) on 6 rats.
Assay [6] in a line: Ratio of amount of Na+ excreted to amount of K+ excreted in urine of rat of protocol A-1 test.
Assay [7] deals with Rattus norvegicus. Description: Total volume of urine excreted during 18 hours after single administration of 5 mg/kg of the test agent (protocol A-1) on 6 rats.
Assay [8] concerns Rattus norvegicus. Description: Total volume of urine excreted during 18 hours after single administration of 5 mg/kg of the test agent (protocol A-2) on 6 rats.
Assay [9] is described as follows: Ratio of amount of Na+ excreted to amount of K+ excreted in urine of water-loaded rats.
The subject of assay [10] is Rattus norvegicus. Description: Amount of potassium ions excreted during 18 hours after single administration of 5 mg/kg of the test agent (protocol A-1) on 6 rats.
The subject of assay [11] is Rattus norvegicus. Description: Amount of potassium ions excreted during 4 hr after oral administration of 5 mg/kg of the test agent (protocol B) on 5 male and female rats.
The test system of assay [12] is Rattus norvegicus. The experiment in a line: Total volume of urine excreted during 4 hr after oral administration of 5 mg/kg of the test agent (protocol B) on 5 male and female rats.
Assay [13] concerns Rattus norvegicus. Description: Amount of sodium ions excreted during 18 hours after single administration of 5 mg/kg of the test agent (protocol A-2) on 11 rats.
Assay [14] deals with Rattus norvegicus. The experiment in a line: Amount of potassium ions excreted during 18 hours after single administration of 5 mg/kg of the test agent (protocol A-2) on 11 rats.
Assay [15] relates to Rattus norvegicus. The experiment in a line: Total volume of urine excreted during 18 hours after single administration of 5 mg/kg of the test agent (protocol A-2) on 11 rats.

As for `CC1Cc2ccccc2N1NC(=O)c1ccc(Cl)c(S(N)(=O)=O)c1` (stereo not drawn) [INDAPAMIDE], the results for the “Urine Na+” value with Rattus norvegicus [1], with Rattus norvegicus [2] and with Rattus norvegicus [3] were 0.705 m equiv, 2.563 m equiv and 2.947 m equiv, respectively. Moreover, the values for the Ratio in [4], in assay [6] and in assay [9] were 1.0526, 1.143 and 2.738, respectively. The “Urine K+” value in the assay on Rattus norvegicus [5] is recorded as 2.78 m equiv; in the assay with Rattus norvegicus [10] it was 2.198 m equiv; in the assay with Rattus norvegicus [11], 0.2686 m equiv. For the same compound, the Urine was determined as 12.83 mL in the assay on Rattus norvegicus [7], 16.67 mL in the assay with Rattus norvegicus [8] and 130.6 mL with Rattus norvegicus [12].

As to `NS(=O)(=O)c1cc(C(=O)NN2Cc3ccccc3C2C(=O)O)ccc1Cl` (stereo not drawn), the “Urine Na+” value stood at 0.109 m equiv in the assay with Rattus norvegicus [1], 1.59 m equiv in the assay on Rattus norvegicus [2] and 2.199 m equiv in the assay on Rattus norvegicus [13]. For the same compound, the results for the “Urine K+” value in the assay with Rattus norvegicus [14], in the assay with Rattus norvegicus [10] and with Rattus norvegicus [11] were 2.075 m equiv, 1.569 m equiv and 0.1305 m equiv, respectively. Also, the results for the Ratio in assay [4], in assay [6] and in [9] were 1.0809, 0.984 and 0.855, respectively. For the same compound, the Urine was 9.36 mL in the assay on Rattus norvegicus [7], 9.36 mL in the assay on Rattus norvegicus [15] and 87.1 mL in the assay on Rattus norvegicus [12].

For the compound `CC1c2ccccc2CN1NC(=O)c1ccc(Cl)c(S(N)(=O)=O)c1` (stereo not drawn) [ZIDAPAMIDE], the “Urine Na+” value with Rattus norvegicus [1] is listed as 0.6927 m equiv; with Rattus norvegicus [2], 2.193 m equiv; in the assay on Rattus norvegicus [3] it was 3.058 m equiv. Moreover, the Ratio stood at 1.2204 in [4], 1.128 in assay [6] and 3.11 in assay [9]. Besides, the “Urine K+” value in the assay with Rattus norvegicus [5] worked out at 2.56 m equiv; in the assay with Rattus norvegicus [10], 1.976 m equiv; with Rattus norvegicus [11], 0.2398 m equiv. The Urine worked out at 11.67 mL in the assay with Rattus norvegicus [7], 16.17 mL with Rattus norvegicus [8] and 127 mL with Rattus norvegicus [12].

For `NS(=O)(=O)c1cc(C(=O)NN2Cc3ccccc3C2CO)ccc1Cl` (stereo not drawn), the results for the “Urine Na+” value with Rattus norvegicus [1], with Rattus norvegicus [2] and in the assay with Rattus norvegicus [13] were 0.2629 m equiv, 1.622 m equiv and 1.414 m equiv, respectively. In addition, the entries for the “Urine K+” value with Rattus norvegicus [14], in the assay on Rattus norvegicus [10] and in the assay with Rattus norvegicus [11] were 1.512 m equiv, 1.486 m equiv and 0.1657 m equiv, respectively. Besides, the Ratio in assay [4] is listed as 0.943; in [6] it was 1.084; in [9], 1.638. Also, the Urine worked out at 11.17 mL with Rattus norvegicus [7], 11.45 mL with Rattus norvegicus [15] and 106 mL with Rattus norvegicus [12].
